Patent US5138101A, “Recovery of high-boiling aldehydes from rhodium-catalyzed hydroformylation processes” (Eastman Kodak Company, priority 1991, dated 1992)
Like-named read-outs stand apart in the source and are kept apart here.

Key:
[1] = Rhodium concentration in the extraction solution phase after extraction, with and without sodium carboxylate salt; format: physicochemical; conditions: for Rh Conc.: extraction solution phase
Experimental: Each experiment employed an extraction temperature of 50° C., an agitation period of 30 minutes and a phase separation period of 5 minutes followed by sampling of the extraction solution phase. One mL aliquots of the lower, extraction solution phase was sampled for Rh analysis.
The results of these experiments are shown in Table IV wherein Na Conc. and Rh Conc. are the sodium [Na] and rhodium [Rh] concentrations in mg/L in the extraction solution phase. Also set forth in Table IV are the partition coefficients obtained for the C9-enal isomers, C10-dial isomers and the p diisopropylbenzene hydroformylation solvent (H.S.) in each example.
[…] […] The extractions were carried out at 50° C. using 62 mL of each hydroformylation product solution and 50 mL of an extraction mixture consisting of a 3:1 volume ratio of methanol and water.
Each extraction employed an agitation period of 30 minutes and a phase separation period of 5 minutes followed by sampling of the extraction solution phase. One mL aliquots of the lower, extraction solution phase was sampled for Rh analysis. […]

[2] = cited from earlier work

## [Rh] [Rh, rhodium]
[1]; Example 31, 50° C., Na 0
  Rh Conc. in extraction solution phase: 120 mg/L
[1]; Example 32, Na 82 mg/L as 2-ethylhexanoate
  Rh Conc. in extraction solution phase: 54 mg/L
[1]; Example 33, Na 164 mg/L as 2-ethylhexanoate
  Rh Conc. in extraction solution phase: 37 mg/L
[1]; Example 34, Na 327 mg/L as 2-ethylhexanoate
  Rh Conc. in extraction solution phase: 28 mg/L
[1]; Example 35, Na 653 mg/L as 2-ethylhexanoate
  Rh Conc. in extraction solution phase: 20 mg/L
[1]; Example 36, Na 1307 mg/L as 2-ethylhexanoate
  Rh Conc. in extraction solution phase: 12 mg/L
[1]; Example 37, 50° C., Na 0
  Rh Conc. in extraction solution phase: 56 mg/L
[1]; Example 38, Na 82 mg/L as oleate
  Rh Conc. in extraction solution phase: 6 mg/L
[1]; Example 39, Na 164 mg/L as oleate
  Rh Conc. in extraction solution phase: 5 mg/L
[1]; Example 40, Na 327 mg/L as oleate
  Rh Conc. in extraction solution phase: 4 mg/L
[1]; Example 41, Na 653 mg/L as oleate
  Rh Conc. in extraction solution phase: 4 mg/L
[1]; Example 42, Na 1307 mg/L as oleate
  Rh Conc. in extraction solution phase: 3.6 mg/L
[1]; Example 43, 50° C., Na 0
  Rh Conc. in extraction solution phase: 72 mg/L
[1]; Example 44, Na 82 mg/L as n butyrate
  Rh Conc. in extraction solution phase: 39 mg/L
[1]; Example 45, Na 164 mg/L as n butyrate
  Rh Conc. in extraction solution phase: 32 mg/L
[1]; Example 46, Na 327 mg/L as n butyrate
  Rh Conc. in extraction solution phase: 25 mg/L
[1]; Example 47, Na 653 mg/L as n butyrate
  Rh Conc. in extraction solution phase: 22 mg/L
[1]; Example 48, Na 1307 mg/L as n butyrate
  Rh Conc. in extraction solution phase: 15 mg/L
[1]; Example 49, methanol/water 37/27 mL, Na 0
  Rh Conc. in extraction solution phase: 18.6 mg/L
[1]; Example 50, methanol/water 37/27 mL, Na 100 as oleate
  Rh Conc. in extraction solution phase: 2.6 mg/L
[1]; Example 52, Ref. Ex. 1 (BISBI), MeOH:water 3:1, 50° C., Na 0
  Rh Conc. in extraction solution phase: 120 mg/L
[1]; Example 53, Ref. Ex. 1 (BISBI), Na 82 mg/L
  Rh Conc. in extraction solution phase: 54 mg/L
[1]; Example 54, Ref. Ex. 1 (BISBI), Na 164 mg/L
  Rh Conc. in extraction solution phase: 37 mg/L
[1]; Example 55, Ref. Ex. 1 (BISBI), Na 327 mg/L
  Rh Conc. in extraction solution phase: 28 mg/L
[1]; Example 56, Ref. Ex. 11 (TCHP), Na 0
  Rh Conc. in extraction solution phase: 7.6 mg/L
[1]; Example 57, Ref. Ex. 11 (TCHP), Na 82 mg/L
  Rh Conc. in extraction solution phase: 5.2 mg/L
[1]; Example 58, Ref. Ex. 11 (TCHP), Na 164 mg/L
  Rh Conc. in extraction solution phase: 2.6 mg/L
[1]; Example 59, Ref. Ex. 11 (TCHP), Na 327 mg/L
  Rh Conc. in extraction solution phase: 1.4 mg/L
[1]; Example 60, Ref. Ex. 12 (TBP), Na 0
  Rh Conc. in extraction solution phase: 6.2 mg/L
[1]; Example 61, Ref. Ex. 12 (TBP), Na 82 mg/L
  Rh Conc. in extraction solution phase: 5.4 mg/L
[1]; Example 62, Ref. Ex. 12 (TBP), Na 164 mg/L
  Rh Conc. in extraction solution phase: 5.6 mg/L
[1]; Example 63, Ref. Ex. 12 (TBP), Na 327 mg/L
  Rh Conc. in extraction solution phase: 5.4 mg/L
[1]; Example 64, Ref. Ex. 7 (TPP), Na 0
  Rh Conc. in extraction solution phase: 7.6 mg/L
[1]; Example 65, Ref. Ex. 7 (TPP), Na 82 mg/L
  Rh Conc. in extraction solution phase: 2.0 mg/L
[1]; Example 66, Ref. Ex. 7 (TPP), Na 164 mg/L
  Rh Conc. in extraction solution phase: 2.2 mg/L
[1]; Example 67, Ref. Ex. 7 (TPP), Na 327 mg/L
  Rh Conc. in extraction solution phase: 1.8 mg/L
[1]; Example 68, Ref. Ex. 13 (TOP), Na 0
  Rh Conc. in extraction solution phase: 1.2 mg/L
[1]; Example 69, Ref. Ex. 13 (TOP), Na 82 mg/L
  Rh Conc. in extraction solution phase: 1.0 mg/L
[1]; Example 70, Ref. Ex. 13 (TOP), Na 164 mg/L
  Rh Conc. in extraction solution phase: < 1 mg/L
[1]; Example 71, Ref. Ex. 13 (TOP), Na 327 mg/L
  Rh Conc. in extraction solution phase: < 1 mg/L
[1]; Example 72, Ref. Ex. 26 (BISBI, TPP), Na 0
  Rh Conc. in extraction solution phase: 30 mg/L
[1]; Example 73, Ref. Ex. 26 (BISBI, TPP), Na 82 mg/L
  Rh Conc. in extraction solution phase: 10 mg/L
[1]; Example 74, Ref. Ex. 26 (BISBI, TPP), Na 164 mg/L
  Rh Conc. in extraction solution phase: 8.2 mg/L
[1]; Example 75, Ref. Ex. 26 (BISBI, TPP), Na 327 mg/L
  Rh Conc. in extraction solution phase: 6.8 mg/L
[1]; Example 76, Ref. Ex. 27 (BISBI, TCHP), Na 0
  Rh Conc. in extraction solution phase: 10 mg/L
[1]; Example 77, Ref. Ex. 27 (BISBI, TCHP), Na 82 mg/L
  Rh Conc. in extraction solution phase: 1.8 mg/L
[1]; Example 78, Ref. Ex. 27 (BISBI, TCHP), Na 164 mg/L
  Rh Conc. in extraction solution phase: 2.8 mg/L
[1]; Example 79
  Rh Conc.: < 1 mg [Rh] per liter
[1]; Example 80
  Rh Conc.: < 1 mg [Rh] per liter
[1]; Example 81
  Rh Conc.: 3.0 mg [Rh] per liter
[1]; Example 82
  Rh Conc.: < 1 mg [Rh] per liter
[1]; Example 83
  Rh Conc.: 2.0 mg [Rh] per liter
[1]; Example 84
  Rh Conc.: < 1 mg [Rh] per liter
[1]; Example 85
  Rh Conc.: < 1 mg [Rh] per liter
[1]; Example 86
  Rh Conc.: < 1 mg [Rh] per liter
[1]; Example 87
  Rh Conc.: 1.2 mg [Rh] per liter
[2]; 4-hydroxybutyraldehyde 38 percent by weight, U.S. Pat. No. 4,678,857
  Rhodium extracted into the aqueous phase: 5 mg of rhodium per liter
[2]; aqueous 2-N,N-dimethylaminoethanol, U.S. Pat. No. 4,292,196
  Rhodium extracted into the aqueous phase: 70%
